Read-outs that look alike come from different tables or passages of the source. Marks after values point to notes of the source that are not given here. Bounds are passed on as bounds.

Test [1] concerns human liver cancer plc/prf/5. The note with it: 10 mg/kg (based on rapamycin), i.v., Q2W × 2W.
A further test relates to human colon cancer HT-29. The experiment in a line: Xenografted tumor of human colon cancer HT-29 in nude mice. It is filed as in vivo, BALB/cA nude mice. The note with it: 45 mg/kg, qw × 3w, iv.
The subject of test [2] is human ovarian cancer SKOV-3. In words: Xenografted tumor of human ovarian cancer SKOV-3 in nude mice. It is filed as in vivo, BALB/cA nude mice. The note with it: 45 mg/kg, qw × 3w, iv.
Test [3] deals with human colon cancer HCT-116. The experiment in a line: Xenografted tumor of human colon cancer HCT-116 in nude mice. In kind it is in vivo, BALB/cA nude mice. Particulars: 45 mg/kg, qw × 3w, iv. Here is the method: The diameter of subcutaneously xenografted tumor of the nude mice was measured by the caliper.
In a further test the test system is human lung cancer A549. In words: Xenografted tumor of human lung cancer A549 in nude mice. In kind it is in vivo, BALB/cA nude mice. The note with it: 45 mg/kg, qw × 3w, iv.
For test [4], the system named is human colon cancer SW-620. The experiment in a line: Xenografted tumor of human colon cancer SW-620 in nude mice. The note with it: 45 mg/kg, qw × 3w, iv.
Setting [5] is: day 24 after the inoculation (grouping).

Regarding “conjugate of methoxy PEG (20K) dipeptide of glutamic acid glycine-rapamycin [LPR-2]”, the “Delayed days of tumor growth (to 1000 mm^3)” value in test [1] is on record as >7 days. Further, the “Tumor volume (average ± standard error)” value in test [1] (setting [5]) turned out to be 353 ± 54 mm^3; in test [1] (day 27 after the inoculation), 404 ± 89 mm^3; in test [1] (day 31 after the inoculation), 391 ± 72 mm^3; in test [1] (day 34 after the inoculation), 456 ± 77 mm^3; in test [1] (day 38 after the inoculation) it was 536 ± 77 mm^3.
As to “conjugate of Y shape PEG dipeptide of glutamic acid and glycine (number-average molecular weight of 40,000)-rapamycin [LPR-3]”, the “Delayed days of tumor growth (to 1000 mm^3)” value in test [1] is given as >7 days. For the same substance, the “Tumor proliferation rates T/C” value in test [1] (compared with the solvent group, day 38 after the inoculation) is 47%. Moreover, the “Tumor volume (average ± standard error)” value in test [1] (setting [5]) came to 358 ± 62 mm^3; in test [1] (day 27 after the inoculation), 455 ± 85 mm^3; in test [1] (day 31 after the inoculation), 569 ± 100 mm^3; in test [1] (day 34 after the inoculation) it was 754 ± 151 mm^3; in test [1] (day 38 after the inoculation), 848 ± 178 mm^3.
Consider “conjugate of methoxy PEG dipeptide of glutamic acid and glycine (number-average molecular weight of 20,000)-irinotecan [YNR-1]”, for which the “RTV (mean ± SD)” value in the test with human colon cancer HT-29 is on record as 5.71 ± 1.21; in test [2] it was 0.07 ± 0.01*^,#; in test [3] it was 1.78 ± 0.23**^,##; in the test with human lung cancer A549, 2.97 ± 1.04*^,#; in test [4], 0.003 ± 0.002**^,#. Moreover, the T/C in the test with human colon cancer HT-29 stood at 41.08%; in test [2], 0.53%; in test [3], 27.60%; in the test with human lung cancer A549 it was 20.62%; in test [4], 0.02%. Also, the “TV (mean ± SD) d0” value in the test with human colon cancer HT-29 (d0) is 115 ± 25 mm^3; in test [2] (d0) it was 135 ± 35 mm^3; in test [3] (d0), 132 ± 30 mm^3; with human lung cancer A549 (d0) it was 105 ± 21 mm^3; in test [4] (d0) it was 130 ± 43 mm^3. The “TV (mean ± SD) d28” value in the test with human colon cancer HT-29 (d28) turned out to be 642 ± 105 mm^3; in test [2] (d28), 1.27 ± 1.98 mm^3; in test [3] (d28), 234 ± 54 mm^3; in the test with human lung cancer A549 (d28) it was 320 ± 154 mm^3; in test [4] (d28) it was 0.37 ± 0.29 mm^3. Besides, the “number of animals with vanished tumor” value in test [2] (d28, 6 mice per group) is listed as 4; in test [4] (d28, 6 mice per group), 2.
